Measured values as given in patent US7851487B2, “Use of tetrahydropyridines in the treatment of central nervous system disorders” (The Research Foundation of State University of New York, priority 2006, dated 2010).

Legend:
[1] = biological target: Dopamine D1 (Homo sapiens, UniProt P21728); assay: Radioligand binding, Dopamine D1; details: Dopamine D1, 10 μM; read-out: Percentage Inhibition
Description: (§1) The assays utilized human neuroreceptors and were performed under the experimental parameters set forth in Table 2 using standard techniques.
(§2) For Table 3, IC50 values were determined by non-linear, least squares regression analysis using Data Analysis Toolbox™ (MDL Information Systems, San Leandro, Calif., USA). Inhibition constants (KI) were calculated using the equation of Cheng and Prusoff (Cheng, Y., et al. Biochem. Pharmacol. 22:3099-3108, 1973) using the observed IC50 of the tested compound, the concentration of radioligand employed in the assay, and the values for the KD of the ligand. The Hill coefficient (nH), defining the slope of the competitive binding curve, was calculated using the Data Analysis Toolbox™. Biochemical assay results are presented as the percent inhibition of specific binding or activity unless indicated otherwise. The experiments summarized in Table 3 utilized human dopamine D1, D2 s, D21, D3, D4.2, D4.4, serotonin 5HT1A, 5HT2A, 5HT2C, 5HT6, 5HT7, dopamine transporter (DAT), serotonin transporter (SERT) and the norepinephrine transporter (NET), as indicated in Table 3.

[2] = biological target: Dopamine D3 (Homo sapiens, UniProt P35462); assay: Radioligand binding, Dopamine D3; details: Dopamine D3, 10 μM; read-out: Percentage Inhibition
Description: as §1, §2

[3] = biological target: T1, Dopamine D4.2 (Homo sapiens, UniProt P21917, DEL265-296); assay: Radioligand binding, Dopamine D4.2 ([3H]Spiperone)
T1 construct: host or cells: CHO-K1 cells
T1 sequence (P21917 with tags, fused parts or gaps DEL265-296): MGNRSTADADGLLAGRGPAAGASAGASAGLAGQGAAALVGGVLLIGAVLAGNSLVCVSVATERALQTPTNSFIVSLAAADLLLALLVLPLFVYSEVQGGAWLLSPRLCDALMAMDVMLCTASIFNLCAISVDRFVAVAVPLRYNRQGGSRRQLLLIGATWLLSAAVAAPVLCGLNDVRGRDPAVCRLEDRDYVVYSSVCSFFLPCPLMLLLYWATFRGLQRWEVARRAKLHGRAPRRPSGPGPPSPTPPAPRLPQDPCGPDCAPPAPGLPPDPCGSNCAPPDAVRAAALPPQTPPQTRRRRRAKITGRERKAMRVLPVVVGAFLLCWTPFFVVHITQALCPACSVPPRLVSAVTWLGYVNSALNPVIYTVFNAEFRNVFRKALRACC
Description: as §1, §2

[4] = biological target: T2, Serotonin 5HT1A (Homo sapiens, UniProt P08908); assay: Radioligand binding, Serotonin 5HT1A; details: read-out: Percentage Inhibition
T2 sequence (P08908 1-422): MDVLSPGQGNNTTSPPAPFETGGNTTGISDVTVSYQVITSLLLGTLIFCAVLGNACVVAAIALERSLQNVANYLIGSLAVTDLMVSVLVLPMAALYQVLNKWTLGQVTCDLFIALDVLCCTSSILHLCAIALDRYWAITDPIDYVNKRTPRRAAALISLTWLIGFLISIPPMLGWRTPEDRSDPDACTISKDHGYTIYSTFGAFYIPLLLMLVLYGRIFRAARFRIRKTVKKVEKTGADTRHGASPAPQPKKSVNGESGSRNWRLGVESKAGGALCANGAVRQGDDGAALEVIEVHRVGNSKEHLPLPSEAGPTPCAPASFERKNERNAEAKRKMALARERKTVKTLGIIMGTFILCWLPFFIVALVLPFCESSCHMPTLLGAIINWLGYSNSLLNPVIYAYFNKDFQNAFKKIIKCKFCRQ
Description: as §1, §2

[5] = biological target: T3, Serotonin 5HT2A (Homo sapiens, UniProt P28223); assay: Radioligand binding, Serotonin 5HT2A ([3H]Ketanserin)
T3 construct: host or cells: CHO-K1 cells
Description: as §1, §2

[6] = biological target: T4, Serotonin 5HT6 (Homo sapiens, UniProt P50406); assay: Radioligand binding, Serotonin 5HT6 ([3H]LSD)
T4 construct: host or cells: HeLa cells
Description: as §1, §2

[7] = biological target: T5, Serotonin 5HT7 (Homo sapiens, UniProt P34969); assay: Radioligand binding, Serotonin 5HT7 ([3H]LSD)
T5 construct: host or cells: CHO cells
Description: as §1, §2

[8] = biological target: T6, Serotonin transporter (SERT) (Homo sapiens, UniProt P31645); assay: Radioligand binding, Serotonin transporter (SERT) ([3H]Paroxetine)
T6 construct: host or cells: HEK-293 cells
Description: as §1, §2

[9] = tested on: ckr mouse; assay: Motor activity in chakragati (ckr) mice; format: in vivo; details: 10 mg/kg intraperitoneal, 20 minutes after injection, monitored 15 minutes
Description: The mouse also presents lateral ventricular enlargement, which may mirror neuropathological observations in shizophrenia. […] We have further validated this model by testing risperidone, clozapine, haloperidol and pimozide in the ckr mouse. The behavioral output was assayed by measuring the rate of hyperactivity and circling after administration.
A stock solution of compound 2 was dissolved in DMSO, and then diluted to 10 mg/10 ml with distilled water such that the final concentration of DMSO was 0.5%. Each animal received 10 mg/kg of the test drug in a volume of 0.1 ml per 10 g. Additional drugs were tested in parallel in a similar manner.
Twenty ckr mice (male and female, 3 months old) were randomly assigned to receive the test drug (compound 2) or 0.5% DMSO vehicle. The drug was tested in 5 mice. Each treatment was separated by a minimum washout period of 3 days. On the day of testing, mice were brought into the behavioral test room and allowed to acclimatize for at least 1 hour. They then received intraperitoneal injections of the 0.1 ml/10 g (10 mg/kg) of the test drug solution or vehicle. They were returned to their cage and 20 minutes later they were placed in a 190 mm diameter, 300 mm deep circular recording chamber. […] The mice were monitored with an overhead video camera for 15 minutes. […] The total distance moved, the velocity of movement, and the time spent moving were calculated. […]

T3 sequence (P28223 whole entry): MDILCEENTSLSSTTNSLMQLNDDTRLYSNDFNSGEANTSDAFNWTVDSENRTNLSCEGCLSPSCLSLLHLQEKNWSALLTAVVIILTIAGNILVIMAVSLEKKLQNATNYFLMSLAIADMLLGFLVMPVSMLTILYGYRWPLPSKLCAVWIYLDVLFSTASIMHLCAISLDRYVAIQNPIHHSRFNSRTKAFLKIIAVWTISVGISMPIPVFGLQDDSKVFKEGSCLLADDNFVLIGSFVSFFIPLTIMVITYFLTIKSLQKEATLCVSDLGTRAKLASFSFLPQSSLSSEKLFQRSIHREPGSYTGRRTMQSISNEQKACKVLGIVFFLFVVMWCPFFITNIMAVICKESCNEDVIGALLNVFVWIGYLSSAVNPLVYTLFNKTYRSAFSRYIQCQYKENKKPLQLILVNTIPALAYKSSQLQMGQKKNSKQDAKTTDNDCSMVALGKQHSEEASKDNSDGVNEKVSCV
T6 sequence (P31645 whole entry): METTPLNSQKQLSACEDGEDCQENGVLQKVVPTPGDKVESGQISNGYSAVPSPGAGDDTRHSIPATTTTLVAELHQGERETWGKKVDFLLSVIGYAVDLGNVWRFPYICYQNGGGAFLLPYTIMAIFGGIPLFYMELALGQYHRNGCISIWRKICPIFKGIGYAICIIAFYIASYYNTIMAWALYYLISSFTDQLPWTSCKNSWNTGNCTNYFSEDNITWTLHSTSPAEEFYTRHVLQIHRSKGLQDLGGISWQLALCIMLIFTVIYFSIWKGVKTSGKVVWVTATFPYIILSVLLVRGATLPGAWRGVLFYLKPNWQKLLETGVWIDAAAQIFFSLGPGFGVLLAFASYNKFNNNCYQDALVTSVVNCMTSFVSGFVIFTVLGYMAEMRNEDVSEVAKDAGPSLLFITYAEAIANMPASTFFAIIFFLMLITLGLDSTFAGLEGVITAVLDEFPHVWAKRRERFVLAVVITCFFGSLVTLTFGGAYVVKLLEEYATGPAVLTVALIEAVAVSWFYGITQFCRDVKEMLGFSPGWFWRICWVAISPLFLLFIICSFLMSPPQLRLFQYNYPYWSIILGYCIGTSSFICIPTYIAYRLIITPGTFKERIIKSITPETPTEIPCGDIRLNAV
T5 sequence (P34969 whole entry): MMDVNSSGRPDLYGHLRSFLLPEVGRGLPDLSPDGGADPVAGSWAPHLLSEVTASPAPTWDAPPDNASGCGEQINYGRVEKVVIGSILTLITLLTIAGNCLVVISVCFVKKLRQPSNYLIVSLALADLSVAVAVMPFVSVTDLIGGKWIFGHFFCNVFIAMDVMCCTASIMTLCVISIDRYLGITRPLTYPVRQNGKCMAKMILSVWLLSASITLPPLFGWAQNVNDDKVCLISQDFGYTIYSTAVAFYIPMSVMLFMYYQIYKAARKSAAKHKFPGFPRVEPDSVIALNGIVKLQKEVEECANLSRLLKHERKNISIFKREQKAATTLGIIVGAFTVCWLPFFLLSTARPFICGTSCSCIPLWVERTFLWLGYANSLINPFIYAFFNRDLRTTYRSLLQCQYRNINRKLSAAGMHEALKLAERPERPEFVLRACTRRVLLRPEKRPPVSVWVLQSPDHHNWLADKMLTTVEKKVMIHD
T4 sequence (P50406 whole entry): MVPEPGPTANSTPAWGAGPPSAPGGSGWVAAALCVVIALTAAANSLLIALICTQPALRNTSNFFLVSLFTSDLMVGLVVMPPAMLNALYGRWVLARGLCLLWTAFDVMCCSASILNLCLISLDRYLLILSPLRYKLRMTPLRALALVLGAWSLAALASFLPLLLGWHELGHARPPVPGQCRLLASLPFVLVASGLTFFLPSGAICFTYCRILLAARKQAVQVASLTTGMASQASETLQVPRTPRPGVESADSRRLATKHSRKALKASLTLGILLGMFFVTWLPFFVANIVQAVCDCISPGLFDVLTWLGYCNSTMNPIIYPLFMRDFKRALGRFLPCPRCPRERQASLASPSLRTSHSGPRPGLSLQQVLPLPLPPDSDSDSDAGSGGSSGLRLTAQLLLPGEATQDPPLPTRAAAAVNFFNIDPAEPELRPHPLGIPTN
Sequence of Dopamine D1 (P21728 whole entry): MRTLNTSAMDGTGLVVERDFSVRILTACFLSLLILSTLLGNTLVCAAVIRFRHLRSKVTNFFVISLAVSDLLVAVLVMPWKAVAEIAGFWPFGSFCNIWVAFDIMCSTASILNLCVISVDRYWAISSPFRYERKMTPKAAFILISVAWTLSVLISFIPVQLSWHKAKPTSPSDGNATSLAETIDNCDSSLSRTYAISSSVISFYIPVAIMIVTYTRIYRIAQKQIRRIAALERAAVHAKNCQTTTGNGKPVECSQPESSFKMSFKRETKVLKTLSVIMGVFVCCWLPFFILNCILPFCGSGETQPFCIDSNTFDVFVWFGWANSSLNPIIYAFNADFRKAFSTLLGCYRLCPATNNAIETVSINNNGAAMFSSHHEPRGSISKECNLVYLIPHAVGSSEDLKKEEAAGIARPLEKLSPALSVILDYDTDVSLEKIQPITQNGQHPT
Sequence of Dopamine D3 (P35462 whole entry): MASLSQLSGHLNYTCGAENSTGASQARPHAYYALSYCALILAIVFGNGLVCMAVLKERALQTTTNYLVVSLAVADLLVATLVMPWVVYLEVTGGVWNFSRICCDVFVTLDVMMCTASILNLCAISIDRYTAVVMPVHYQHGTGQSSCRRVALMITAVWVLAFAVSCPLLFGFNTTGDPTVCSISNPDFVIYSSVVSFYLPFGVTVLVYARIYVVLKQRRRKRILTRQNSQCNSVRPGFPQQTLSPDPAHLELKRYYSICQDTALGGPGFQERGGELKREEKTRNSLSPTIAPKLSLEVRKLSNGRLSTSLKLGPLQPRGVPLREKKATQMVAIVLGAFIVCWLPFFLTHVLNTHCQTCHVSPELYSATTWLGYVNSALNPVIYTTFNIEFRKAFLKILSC

SMILES: COC(=O)[C@@H](c1ccc(-c2ccccc2)cc1)[C@H]1C=CCCN1 [Compound 2]
- inhibition at 10 µM [1]: 17%
- inhibition at 10 µM [2]: 15%
- IC50 [3]: 50.5 µM
- Ki [3]: 19.7 µM
- nH ([3]; Dopamine D4.2, Hill coefficient): 1.76
- Percentage Inhibition ([3]; Dopamine D4.2, concentration 100 (unit not given)): 79%
- inhibition at 10 µM [4]: 13%
- IC50 [5]: 0.797 µM
- Ki [5]: 0.228 µM
- inhibition at 1 µM ([5]; Serotonin 5HT2A, 1 μM, read-out: Percentage Inhibition): 61%
- inhibition at 10 µM ([5]; Serotonin 5HT2A, 10 μM, read-out: Percentage Inhibition): 94%
- nH ([5]; Serotonin 5HT2A, Hill coefficient): 1.02
- IC50 [6]: 94.5 µM
- Ki [6]: 43.9 µM
- inhibition at 100 µM ([6]; Serotonin 5HT6, 100 μM, read-out: Percentage Inhibition): 53%
- nH ([6]; Serotonin 5HT6, Hill coefficient): 1.12
- IC50 [7]: 25.8 µM
- Ki [7]: 14.8 µM
- inhibition at 30 µM ([7]; Serotonin 5HT7, 30 μM, read-out: Percentage Inhibition): 53%
- nH ([7]; Serotonin 5HT7, Hill coefficient): 0.774
- IC50 [8]: 14.3 µM
- Ki [8]: 2.33 µM
- inhibition at 10 µM ([8]; Serotonin transporter (SERT), 10 μM, read-out: Percentage Inhibition): 48%
- inhibition at 30 µM ([8]; Serotonin transporter (SERT), 30 μM, read-out: Percentage Inhibition): 70%
- nH ([8]; Serotonin transporter (SERT), Hill coefficient): 1.24
- time spent moving [9]: significantly decreased the time spent moving
- velocity of movement [9]: trend towards decreased velocity
